# Values joined by “and” are separate entries in the source; they are usually repeats but may differ in a detail not shown here. Equal entries are not always repeated.
# Test: Huh 7.5.1 ATPlite assay : This example demonstrates the EC50 and CC50 values against HCV according to the HCVcc-RLuc reporter assay described in Example 5 and the cytotoxicity using the Huh 7.5.1 ATPlite assay for compounds in accordance with an embodiment of the invention.
# Conditions: not given
row,Compound,EC50
1,CC1OC(c2c(Cl)cccc2Br)=NC1CN1CCC(C(=O)NCCCN2C[C@H](C)C[C@H](C)C2)CC1 (stereo partly drawn),178 nM and 386 nM

# Same assay, conditions: Huh-7.5.1
row,Compound,EC50
1,CC1OC(c2ccc(Cl)c(Cl)c2)=NC1CN1CCC(C(=O)NCCCN2C[C@H](C)C[C@H](C)C2)CC1 (stereo partly drawn),13 nM
2,Cc1ccccc1-c1nc(CN2CCC(C(=O)NCCCN3C[C@H](C)C[C@H](C)C3)CC2)c(C)s1,38 nM
3,Cc1cc(C)cc(C2=NC(CN3CCC(C(=O)NCCCN4C[C@H](C)C[C@H](C)C4)CC3)C(C)O2)c1 (stereo partly drawn),36 nM
4,Cc1ccc(C2=NC(CN3CCC(C(=O)NCCCN4C[C@H](C)C[C@H](C)C4)CC3)C(C)O2)cc1C (stereo partly drawn),98 nM
5,C[C@@H]1C[C@H](C)CN(CCCNC(=O)C2CCN(Cc3oc(-c4cc(C(F)(F)F)cc(C(F)(F)F)c4)nc3C(F)(F)F)CC2)C1,153 nM
6,Cc1ccccc1C1=NC(CN2CCC(C(=O)NCCCN3CCC(C)CC3)CC2)C(C)O1 (stereo not drawn),400 nM
7,CC1OC(c2ccc(Cl)cc2)=NC1CN1CCC(C(=O)NCCCN2C[C@H](C)C[C@H](C)C2)CC1 (stereo partly drawn),110 nM
8,Cc1cc(-c2nc(CN3CCC(C(=O)NCCCN4C[C@H](C)C[C@H](C)C4)CC3)co2)ccc1F,38 nM
9,Cc1cc(C)c(C2=NC(CN3CCC(C(=O)NCCCN4C[C@H](C)C[C@H](C)C4)CC3)C(C)O2)c(C)c1 (stereo partly drawn),190 nM
10,CC1OC(c2c(F)cccc2Cl)=NC1CN1CCC(C(=O)NCCCN2C[C@H](C)C[C@H](C)C2)CC1 (stereo partly drawn),334 nM
11,Cc1ccccc1C1=NC(CN2CCC(C(=O)NCCN3CCCCC3)CC2)C(C)O1 (stereo not drawn),1200 nM
12,COc1cc(OC)cc(C2=NC(CN3CCC(C(=O)NCCCN4CC(C)CC(C)C4)CC3)C(C)O2)c1 (stereo not drawn),680 nM
13,CC1OC(c2c(F)cccc2F)=NC1CN1CCC(C(=O)NCCCN2C[C@H](C)C[C@H](C)C2)CC1 (stereo partly drawn),624 nM
14,Cc1ccccc1C1=NC(CN2CCC(C(=O)N3CCN(CCN(C)C)CC3)CC2)C(C)O1 (stereo not drawn),6100 nM
15,CC1OC(c2ccccc2Cl)=NC1CN1CCC(C(=O)NCCCN2C[C@H](C)C[C@H](C)C2)CC1 (stereo partly drawn),86 nM
16,Cc1ccccc1-c1nc(CC2CCC[C@@H](C(=O)CCCCN3C[C@H](C)C[C@H](C)C3)C2)c(C)o1 (stereo partly drawn),410 nM
17,CCc1ccccc1C1=NC(CN2CCC(C(=O)NCCCN3C[C@H](C)C[C@H](C)C3)CC2)C(C)O1 (stereo partly drawn),140 nM
18,Cc1cccc(Cl)c1C1=NC(CN2CCC(C(=O)NCCCN3CCC(C)(C)CC3)CC2)C(C)O1 (stereo not drawn),220 nM
19,Cc1ccc(C2=NC(CN3CCC(C(=O)NCCCN4C[C@H](C)C[C@H](C)C4)CC3)C(C)O2)cc1 (stereo partly drawn),100 nM
20,CC1OC(c2ccc(F)cc2)=NC1CN1CCC(C(=O)NCCCN2C[C@H](C)C[C@H](C)C2)CC1 (stereo partly drawn),53 nM
21,CC1CCCN(CCCNC(=O)C2CCN(Cc3oc(-c4cc(C(F)(F)F)cc(C(F)(F)F)c4)nc3C(F)(F)F)CC2)C1 (stereo not drawn),341 nM
22,COc1cccc(Br)c1C1=NC(CN2CCC(C(=O)NCCCN3C[C@H](C)C[C@H](C)C3)CC2)C(C)O1 (stereo partly drawn),213 nM
23,CC1OC(c2c(Cl)cccc2Cl)=NC1CN1CCC(C(=O)NCCCN2C[C@H](C)C[C@H](C)C2)CC1 (stereo partly drawn),221 nM
24,Cc1ccccc1-c1nc(CN2CCC[C@@H](C(=O)NCCCN3C[C@H](C)C[C@H](C)C3)C2)c(C)o1,304 nM
25,Cc1cccc(Cl)c1C1=NC(CN2CCC(C(=O)NCCCN3C[C@H](C)C[C@H](C)C3)CC2)C(C)O1 (stereo partly drawn),14 nM
26,COc1cccc(F)c1C1=NC(CN2CCC(C(=O)NCCCN3C[C@H](C)C[C@H](C)C3)CC2)C(C)O1 (stereo partly drawn),455 nM
27,CCN(CC)CCCCNC(=O)C1CCN(CC2N=C(c3cc(OC)cc(OC)c3)OC2C)CC1 (stereo not drawn),6550 nM

# Source: ChEMBL document CHEMBL5726468, “Heterocyclic compounds and methods of use thereof” (2019)
